Measurements: BindingDB's records for doi:10.1016/S1074-5521(01)00067-9 (University of California San Francisco, 2001)
pIC50: −log10 of the molar value.

Key:
Test in all cases: Inhibition Assay
Thymidylate synthase [1] = target: T1, Thymidylate synthase (Lacticaseibacillus casei, UniProt P00469)
T1 sequence (P00469 whole entry): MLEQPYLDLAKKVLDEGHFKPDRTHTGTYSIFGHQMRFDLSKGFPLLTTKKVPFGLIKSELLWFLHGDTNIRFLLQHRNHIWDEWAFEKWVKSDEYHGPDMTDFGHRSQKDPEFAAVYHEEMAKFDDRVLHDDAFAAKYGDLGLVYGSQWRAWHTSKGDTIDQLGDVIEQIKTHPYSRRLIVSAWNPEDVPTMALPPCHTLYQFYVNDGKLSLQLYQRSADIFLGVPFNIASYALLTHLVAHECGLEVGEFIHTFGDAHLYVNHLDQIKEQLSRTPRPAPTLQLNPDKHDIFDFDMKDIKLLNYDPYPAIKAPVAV
Description: (§1) Affinity assay of specificities of thymidylate synthase (TS)inhibitors

Thymidylate synthase [2] = target: Thymidylate synthase (Escherichia coli (strain K12), UniProt P0A884)
Thymidylate synthase (Escherichia coli (strain K12), UniProt P0A884), sequence (P0A884 whole entry): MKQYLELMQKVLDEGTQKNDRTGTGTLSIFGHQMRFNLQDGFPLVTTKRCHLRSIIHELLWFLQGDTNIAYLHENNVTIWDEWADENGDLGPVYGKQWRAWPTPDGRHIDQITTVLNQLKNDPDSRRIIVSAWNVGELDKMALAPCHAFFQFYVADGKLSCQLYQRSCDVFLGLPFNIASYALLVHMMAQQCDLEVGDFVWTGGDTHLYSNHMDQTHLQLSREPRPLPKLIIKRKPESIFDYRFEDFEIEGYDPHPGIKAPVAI
Description: as §1

Thymidylate synthase [3] = target: Thymidylate synthase (Homo sapiens, UniProt P04818)
Thymidylate synthase (Homo sapiens, UniProt P04818), sequence (P04818 whole entry): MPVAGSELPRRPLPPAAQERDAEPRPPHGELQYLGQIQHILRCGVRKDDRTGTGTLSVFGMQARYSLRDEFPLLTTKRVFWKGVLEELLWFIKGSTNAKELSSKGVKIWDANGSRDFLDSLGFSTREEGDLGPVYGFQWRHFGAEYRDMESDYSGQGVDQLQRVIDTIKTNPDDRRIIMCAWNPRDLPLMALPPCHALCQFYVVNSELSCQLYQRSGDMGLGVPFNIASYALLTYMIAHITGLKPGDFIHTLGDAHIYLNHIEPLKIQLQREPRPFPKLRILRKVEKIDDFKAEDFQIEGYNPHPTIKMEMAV
Description: as §1

Row | SMILES | pIC50 (Thymidylate synthase [1]) | pIC50 (Thymidylate synthase [2]) | pIC50 (Thymidylate synthase [3])
1 | CCCCN(CCCC)c1cccc2c(S(=O)(=O)Oc3ccc(CC(N)C(=O)O)cc3)cccc12 (centres undefined) | 4.28 | – | –
2 | CN(C)c1ccc(/N=N\c2ccc(S(=O)(=O)Oc3ccc(CC(N)C(=O)O)cc3)cc2)cc1 (centres undefined) [4'-(dimethylamino)azobenzene-4-sulfonyl] | < 4.00 | – | –
3 | CN(C)c1cccc2c(S(=O)(=O)NN)cccc12 [5-(dimethylamino)naphthalene-1-sulfonohydrazide] | 3.34 | 2.95 | 4.44

Second part, the compound after the results:

Row | pIC50 (Thymidylate synthase [1]) | pIC50 (Thymidylate synthase [2]) | pIC50 (Thymidylate synthase [3]) | SMILES
4 | 4.15 | – | – | NC(Cc1ccc(OC(=O)c2ccc3ccccc3c2)cc1)C(=O)O (centres undefined) [2-naphthylcarbonyl]
5 | 5.33 | – | – | NC(Cc1ccc(OS(=O)(=O)c2ccc3ccccc3c2)cc1)C(=O)O (centres undefined) [2-naphthylsulfonyl]
6 | – | 2.93 | 3.11 | CN(C)c1cccc2c(S(=O)(=O)Oc3ccc(CC(N)C(=O)O)cc3)cccc12 [Dansyl derivatives 1A, (S) isomer]
